Assay results taken from ChEMBL document CHEMBL1201862, “PubChem BioAssay data set” (2004).
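Dose response: 5 concentrations. Exposure: 48 h. Format: 96-well plates. Endpoint: linear interpolation; highest concentration if not reached. At the GI50, growth is halved.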 The source made the active and inactive calls. Cut-off read from the data, not from the text of the source: active = GI50 up to about 1.1 µM and inactive = higher.

Assays:
Assay in all cases: NCI anticancer screen, dose series, 48 h
NCI-H226 = tested on: NCI-H226
OVCAR-4 = tested on: OVCAR-4
SF-295 = tested on: SF-295
M14 = tested on: M14
SF-268 = tested on: SF-268
UO-31 = tested on: UO-31
HCT-15 = tested on: HCT-15
786-0 = tested on: 786-0
NCI/ADR-RES = tested on: NCI/ADR-RES
IGROV-1 = tested on: IGROV-1
SN12C = tested on: SN12C
T47D = tested on: T47D
CAKI-1 = tested on: CAKI-1
COLO 205 = tested on: COLO 205
HCC 2998 = tested on: HCC 2998
SNB-19 = tested on: SNB-19
KM12 = tested on: KM12
U-251 = tested on: U-251
K562 = tested on: K562
MDA-N = tested on: MDA-N

Structure (SMILES)	GI50 (NCI-H226)	GI50 (OVCAR-4)	GI50 (SF-295)	GI50 (M14)	GI50 (SF-268)	GI50 (UO-31)	GI50 (HCT-15) [µM]	GI50 (786-0)	GI50 (NCI/ADR-RES)	GI50 (IGROV-1)	GI50 (SN12C)	GI50 (T47D)	GI50 (CAKI-1)	GI50 (COLO 205)	GI50 (HCC 2998)	GI50 (SNB-19)	GI50 (KM12)	GI50 (U-251)	GI50 (K562)	GI50 (MDA-N)
C/C(=C\CO)CC/C=C(\C)CNc1c(F)c(F)c(F)c(F)c1F	28.1 µM (inactive)	44.5 µM (inactive)	22.4 µM (inactive)	38.2 µM (inactive)	23.1 µM (inactive)	35.6 µM (inactive)	30.2	44.1 µM (inactive)	30.8 µM (inactive)	49.5 µM (inactive)	20.2 µM (inactive)	61.2 µM (inactive)	33.3 µM (inactive)	27.5 µM (inactive)	24.7 µM (inactive)	27.7 µM (inactive)	27.5 µM (inactive)	24.3 µM (inactive)	33 µM (inactive)	–
CCOC(=O)c1nc2cc(F)c(F)cc2nc1NCc1cc(OC)c(OC)c(OC)c1	–	> 100 µM (inactive)	> 100 µM (inactive)	> 100 µM (inactive)	> 100 µM (inactive)	63.7 µM (inactive)	> 100	57.1 µM (inactive)	> 100 µM (inactive)	> 100 µM (inactive)	> 100 µM (inactive)	> 100 µM (inactive)	> 100 µM (inactive)	> 100 µM (inactive)	–	42.5 µM (inactive)	> 100 µM (inactive)	35.9 µM (inactive)	–	> 100 µM (inactive)
CC(=O)/C(=C\Nc1c(C)n(C)n(C)c1=O)C(=O)c1ccccc1	> 50 µM (inactive)	> 50 µM (inactive)	> 50 µM (inactive)	> 50 µM (inactive)	> 50 µM (inactive)	> 50 µM (inactive)	> 50	> 50 µM (inactive)	–	> 50 µM (inactive)	> 50 µM (inactive)	> 50 µM (inactive)	> 50 µM (inactive)	> 50 µM (inactive)	> 50 µM (inactive)	> 50 µM (inactive)	–	> 50 µM (inactive)	> 50 µM (inactive)	> 50 µM (inactive)
O=c1nc(N2CCCCC2)sc2[nH]c3ccccc3c12	–	> 100 µM (inactive)	> 100 µM (inactive)	34.8 µM (inactive)	54.3 µM (inactive)	24.8 µM (inactive)	> 100	> 100 µM (inactive)	12.6 µM (inactive)	78 µM (inactive)	> 100 µM (inactive)	> 100 µM (inactive)	> 100 µM (inactive)	> 100 µM (inactive)	–	63.1 µM (inactive)	> 100 µM (inactive)	96.4 µM (inactive)	> 100 µM (inactive)	> 100 µM (inactive)
O=S(=O)(c1ccccc1)n1c(C(O)c2ccncc2)cc2ccccc21 (stereo not given)	27 µM (inactive)	31.8 µM (inactive)	48.5 µM (inactive)	32.7 µM (inactive)	–	17.3 µM (inactive)	33.7	68.5 µM (inactive)	35.2 µM (inactive)	39.2 µM (inactive)	> 100 µM (inactive)	36 µM (inactive)	58.9 µM (inactive)	39.7 µM (inactive)	–	50 µM (inactive)	57.1 µM (inactive)	41 µM (inactive)	31.6 µM (inactive)	39.1 µM (inactive)
CN(C)C(=S)S [SODIUM DIMETHYLCARBAMODITHIOATE]	> 100 µM (inactive)	36.9 µM (inactive)	> 80.2 µM (inactive)	> 100 µM (inactive)	> 100 µM (inactive)	56.4 µM (inactive)	> 76	> 70 µM (inactive)	> 100 µM (inactive)	2.23 µM (inactive)	80 µM (inactive)	> 100 µM (inactive)	63.1 µM (inactive)	27.9 µM (inactive)	20.1 µM (inactive)	> 100 µM (inactive)	> 25.2 µM (inactive)	98.6 µM (inactive)	2.44 µM (inactive)	–
CN(C)/C=N/S(=O)(=O)c1nn2c(C=O)c(-c3ccc(-c4ccccc4)cc3)nc2s1	13.3 µM (inactive)	1.96 µM (inactive)	14.4 µM (inactive)	0.904 µM (active)	2.1 µM (inactive)	1.4 µM (inactive)	2.26	0.927 µM (active)	8.57 µM (inactive)	1.24 µM (inactive)	1.97 µM (inactive)	1.95 µM (inactive)	1.31 µM (inactive)	2.56 µM (inactive)	6 µM (inactive)	11.9 µM (inactive)	2.48 µM (inactive)	2.01 µM (inactive)	0.316 µM (active)	–
COc1cc2c(cc1OCCCOc1cc3c(cc1OC)C(=O)N1CCC[C@H]1CN3)N=C[C@@H]1CCCN1C2=O	0.0782 µM (active)	0.67 µM (active)	0.123 µM (active)	0.0753 µM (active)	0.0234 µM (active)	2.17 µM (inactive)	1.86	0.0656 µM (active)	3.11 µM (inactive)	0.201 µM (active)	0.189 µM (active)	0.0309 µM (active)	0.324 µM (active)	0.108 µM (active)	–	0.0869 µM (active)	0.0893 µM (active)	0.0189 µM (active)	0.0482 µM (active)	–
COC(=O)C1=C(C(=O)Nc2cccnc2Cl)N(c2ccc(OC)cc2[N+](=O)[O-])C(c2ccc(C)cc2)=CC1c1ccc(OC)cc1OC (stereo not given)	12.9 µM (inactive)	33.6 µM (inactive)	23.2 µM (inactive)	13.7 µM (inactive)	24.6 µM (inactive)	12.4 µM (inactive)	4.27	12 µM (inactive)	17.6 µM (inactive)	5.94 µM (inactive)	15.4 µM (inactive)	10 µM (inactive)	36.9 µM (inactive)	15.5 µM (inactive)	8.61 µM (inactive)	32.1 µM (inactive)	2.92 µM (inactive)	6.41 µM (inactive)	4.67 µM (inactive)	–
CCC(C)N1CN(c2ccccc2)C2(CCN(CCCC(=O)c3ccc(F)cc3)CC2)C1=O (stereo not given)	–	3.03 µM (inactive)	4.55 µM (inactive)	14.3 µM (inactive)	6.7 µM (inactive)	4.17 µM (inactive)	5.33	> 100 µM (inactive)	83 µM (inactive)	3.02 µM (inactive)	3.88 µM (inactive)	1.68 µM (inactive)	2.25 µM (inactive)	0.193 µM (active)	–	–	–	4.47 µM (inactive)	9.18 µM (inactive)	11.7 µM (inactive)
COc1ccc2c(c1)CCN1CCCc3ccc(OC)cc3C21 (stereo not given)	38.5 µM (inactive)	> 100 µM (inactive)	24.6 µM (inactive)	24.2 µM (inactive)	82.6 µM (inactive)	22.5 µM (inactive)	54.8	49.1 µM (inactive)	42.9 µM (inactive)	57.4 µM (inactive)	50 µM (inactive)	50.6 µM (inactive)	41.8 µM (inactive)	44.4 µM (inactive)	37.9 µM (inactive)	> 100 µM (inactive)	60.4 µM (inactive)	58.9 µM (inactive)	36 µM (inactive)	–
C/C(=N/NC(N)=S)C(CN(C)C)C(C1=C(O)c2ccccc2OC1)c1ccccc1 (stereo not given)	> 100 µM (inactive)	> 100 µM (inactive)	> 100 µM (inactive)	> 100 µM (inactive)	> 100 µM (inactive)	> 100 µM (inactive)	> 100	> 100 µM (inactive)	–	> 100 µM (inactive)	> 100 µM (inactive)	–	> 100 µM (inactive)	> 100 µM (inactive)	> 100 µM (inactive)	> 100 µM (inactive)	> 100 µM (inactive)	> 100 µM (inactive)	> 100 µM (inactive)	–
CCOC(=O)CCC(NC(=O)OCc1ccccc1)C(=O)NC(CCC(=O)OCC)C(=O)NC(CCC(=O)OCC)C(=O)NNC(=O)OC(C)(C)C (stereo not given)	> 100 µM (inactive)	–	–	> 100 µM (inactive)	–	> 100 µM (inactive)	> 100	> 100 µM (inactive)	–	> 100 µM (inactive)	> 100 µM (inactive)	–	–	> 100 µM (inactive)	> 100 µM (inactive)	> 100 µM (inactive)	> 10 µM (inactive)	> 100 µM (inactive)	> 100 µM (inactive)	> 100 µM (inactive)
O=c1c2cc([N+](=O)[O-])ccc2n2n1Cc1ccccc1CC2	> 100 µM (inactive)	> 100 µM (inactive)	> 100 µM (inactive)	> 100 µM (inactive)	> 100 µM (inactive)	> 100 µM (inactive)	> 100	> 100 µM (inactive)	> 100 µM (inactive)	> 100 µM (inactive)	> 100 µM (inactive)	–	> 100 µM (inactive)	> 100 µM (inactive)	> 100 µM (inactive)	> 100 µM (inactive)	> 100 µM (inactive)	> 100 µM (inactive)	> 100 µM (inactive)	> 100 µM (inactive)
CSc1cnn(CCC#N)c(=O)n1	> 100 µM (inactive)	–	> 100 µM (inactive)	> 100 µM (inactive)	> 100 µM (inactive)	> 100 µM (inactive)	> 10	> 100 µM (inactive)	–	> 100 µM (inactive)	> 100 µM (inactive)	> 100 µM (inactive)	> 100 µM (inactive)	> 100 µM (inactive)	> 100 µM (inactive)	> 100 µM (inactive)	> 100 µM (inactive)	> 100 µM (inactive)	33.1 µM (inactive)	> 100 µM (inactive)
COc1cc2ccnc([C@@H](OC(=O)c3ccccc3)c3ccc(OC)c(OC)c3OC)c2cc1OC	35.5 µM (inactive)	31 µM (inactive)	21.2 µM (inactive)	78.3 µM (inactive)	52 µM (inactive)	18.9 µM (inactive)	42.4	35.6 µM (inactive)	–	> 100 µM (inactive)	51.6 µM (inactive)	–	30.3 µM (inactive)	48.5 µM (inactive)	36.5 µM (inactive)	53.1 µM (inactive)	36.9 µM (inactive)	37.5 µM (inactive)	26.7 µM (inactive)	–
